# Experimental data as given in PubChem BioAssay (NCI).
#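 1) Cells in 96-well plates. 2) Compound, 48 h, 5 concentrations. 3) Linear interpolation between surrounding doses. 4) Unreached endpoint = highest concentration. GI50 = concentration required for 50% inhibition of growth. The concentration for full growth arrest is given as TGI.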
# Assays:
# Test in all cases: NCI anticancer screen, dose series, 48 h
# [1] = system: HS 578T breast
# [2] = system: OVCAR-4 ovarian
# [3] = system: A498 renal
# [4] = system: RPMI-8226 leukemia
# [5] = system: DU-145 prostate
# [6] = system: EKVX NSCLC
# [7] = system: SK-MEL-5 melanoma
# [8] = system: MALME-3M melanoma
# [9] = system: T-47D breast
# [10] = system: HT29 colon
# [11] = system: KM12 colon
# [12] = system: MDA-MB-435
# [13] = system: ACHN renal
# [14] = system: HCT-15 colon
# [15] = system: HOP-92 NSCLC
# [16] = system: SW-620 colon
# [17] = system: SNB-75 CNS
# [18] = system: RXF 393 renal
# [19] = system: COLO 205 colon
# [20] = system: PC-3 prostate
# [21] = system: SF-295 CNS
# [22] = system: NCI-H226 lung
# [23] = system: IGROV1 ovarian
# [24] = system: SF-268 CNS
# [25] = system: MOLT-4 leukemia
# [26] = system: LOX IMVI melanoma
# [27] = system: TK-10 renal
structure (smiles),measurement,setting,value
CN(C)c1nc(NCCNS(=O)(=O)c2ccc(C3=Nc4c(N)nc(N)nc4NC(c4ccc(C(F)(F)F)cc4)C3)cc2)nc(Nc2ccc(F)cc2)n1 (centres undefined),GI50,[1],9.03 µM
same,TGI,[1],> 86 µM
same,GI50,[2],25 µM
same,TGI,[2],> 86 µM
same,GI50,[3],22.2 µM
same,TGI,[3],77.4 µM
same,GI50,[4],4 µM
same,TGI,[4],> 86 µM
same,GI50,[5],38.5 µM
same,TGI,[5],> 86 µM
same,GI50,[6],5.52 µM
same,TGI,[6],> 86 µM
same,GI50,[7],10.4 µM
same,TGI,[7],21.3 µM
same,GI50,[8],11.3 µM
same,TGI,[8],24.2 µM
same,GI50,[9],12 µM
same,TGI,[9],> 86 µM
same,GI50,[10],4.88 µM
same,TGI,[10],18.3 µM
same,GI50,[11],6.14 µM
same,TGI,[11],> 86 µM
same,GI50,[12],9.13 µM
same,TGI,[12],> 86 µM
same,GI50,[13],> 86 µM
same,TGI,[13],> 86 µM
same,GI50,[14],55.1 µM
same,TGI,[14],> 86 µM
same,GI50,[15],2.99 µM
same,TGI,[15],16.9 µM
same,GI50,[16],14.3 µM
same,TGI,[16],> 86 µM
same,GI50,[17],2.13 µM
same,TGI,[17],> 86 µM
same,GI50,[18],2.57 µM
same,TGI,[18],18.8 µM
same,GI50,[19],9.73 µM
same,TGI,[19],21.8 µM
same,GI50,[20],4.37 µM
same,TGI,[20],> 86 µM
same,GI50,[21],12.9 µM
same,TGI,[21],> 86 µM
same,GI50,[22],37.3 µM
same,TGI,[22],> 86 µM
same,GI50,[23],11.2 µM
same,TGI,[23],> 86 µM
same,GI50,[24],11.2 µM
same,TGI,[24],> 86 µM
same,GI50,[25],2.74 µM
same,TGI,[25],> 86 µM
same,GI50,[26],3.14 µM
same,TGI,[26],12 µM
same,GI50,[27],> 86 µM
same,TGI,[27],> 86 µM
